Test results from the supplement of paper PMC10307832.

Legend:
Experiment in all cases: relative viability (nuclei count vs DMSO), 5 days (fraction); higher = more cells survive
BEN = test system: BEN
In short: (§1)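 After 5 days of treatment, lung cancer cells in 1536-well plates were fixed and stained in a single step (final 0.05% Triton X-100, 1% formaldehyde, 1 ug/ml Hoechst) and their nuclei counted on 4× images. Treatment had been applied by pin tool the day after seeding as one drug alone or as a fixed anchor-drug dose with five library-drug doses (not always all listed) in √10 steps. Relative viability is the nuclei count of treated wells divided by that of vehicle wells, and values are medians of duplicate plates.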

NCI-H2087 = test system: NCI-H2087
In short: as §1

SW 1573 = test system: SW 1573
In short: as §1

NCI-H1650 = test system: NCI-H1650
In short: as §1

HCC-827 = test system: HCC-827
In short: as §1

A-427 = test system: A-427
In short: as §1

COR-L23 = test system: COR-L23
In short: as §1

NCI-H2126 = test system: NCI-H2126
In short: as §1

LCLC-103H = test system: LCLC-103H
In short: as §1

201T = test system: 201T
In short: as §1

NCI-H1793 = test system: NCI-H1793
In short: as §1

NCI-H1651 = test system: NCI-H1651
In short: as §1

EMC-BAC-2 = test system: EMC-BAC-2
In short: as §1

NCI-H596 = test system: NCI-H596
In short: as §1

NCI-H441 = test system: NCI-H441
In short: as §1

EPLC-272H = test system: EPLC-272H
In short: as §1

NCI-H460 = test system: NCI-H460
In short: as §1

HCC-44 = test system: HCC-44
In short: as §1

LK-2 = test system: LK-2
In short: as §1

NCI-H1915 = test system: NCI-H1915
In short: as §1

NCI-H2347 = test system: NCI-H2347
In short: as §1

EKVX = test system: EKVX
In short: as §1

NCI-H358 = test system: NCI-H358
In short: as §1

SW 900 = test system: SW 900
In short: as §1

LXF-289 = test system: LXF-289
In short: as §1

CCCCCCCCCCCC1=C(O)C(=O)C=C(O)C1=O [Embelin] + CC(=O)Nc1cccc(-n2c(=O)n(C3CC3)c(=O)c3c(Nc4ccc(I)cc4F)n(C)c(=O)c(C)c32)c1 [Trametinib] (partner 0.02 µM)
relative viability (BEN; first compound 0.08 µM): 1.11
relative viability (BEN; first compound 0.8 µM): 1.16
relative viability (BEN; first compound 2.53 µM): 0.966
relative viability (BEN; first compound 8 µM): 0.865
relative viability (NCI-H2087; first compound 0.08 µM): 0.147
relative viability (NCI-H2087; first compound 0.8 µM): 0.225
relative viability (NCI-H2087; first compound 2.53 µM): 0.233
relative viability (NCI-H2087; first compound 8 µM): 0.182
relative viability (SW 1573; first compound 0.08 µM): 0.604
relative viability (SW 1573; first compound 0.8 µM): 0.636
relative viability (SW 1573; first compound 2.53 µM): 0.625
relative viability (SW 1573; first compound 8 µM): 0.603
relative viability (NCI-H1650; first compound 0.08 µM): 0.713
relative viability (NCI-H1650; first compound 0.8 µM): 0.703
relative viability (NCI-H1650; first compound 2.53 µM): 0.675
relative viability (NCI-H1650; first compound 8 µM): 0.703
relative viability (HCC-827; first compound 0.08 µM): 0.535
relative viability (HCC-827; first compound 0.8 µM): 0.588
relative viability (HCC-827; first compound 2.53 µM): 0.506
relative viability (HCC-827; first compound 8 µM): 0.487
relative viability (A-427; first compound 0.08 µM): 0.732
relative viability (A-427; first compound 0.8 µM): 0.785
relative viability (A-427; first compound 2.53 µM): 0.7
relative viability (A-427; first compound 8 µM): 0.624
relative viability (COR-L23; first compound 0.08 µM): 0.562
relative viability (COR-L23; first compound 0.8 µM): 0.689
relative viability (COR-L23; first compound 2.53 µM): 0.653
relative viability (COR-L23; first compound 8 µM): 0.608
relative viability (NCI-H2126; first compound 0.08 µM): 0.495
relative viability (NCI-H2126; first compound 0.8 µM): 0.548
relative viability (NCI-H2126; first compound 2.53 µM): 0.553
relative viability (NCI-H2126; first compound 8 µM): 0.546
relative viability (LCLC-103H; first compound 0.08 µM): 0.718
relative viability (LCLC-103H; first compound 0.8 µM): 0.742
relative viability (LCLC-103H; first compound 2.53 µM): 0.674
relative viability (LCLC-103H; first compound 8 µM): 0.698
relative viability (201T; first compound 0.08 µM): 0.698
relative viability (201T; first compound 0.8 µM): 0.726
relative viability (201T; first compound 2.53 µM): 0.731
relative viability (201T; first compound 8 µM): 0.731
relative viability (NCI-H1793; first compound 0.08 µM): 0.398
relative viability (NCI-H1793; first compound 0.8 µM): 0.446
relative viability (NCI-H1793; first compound 2.53 µM): 0.511
relative viability (NCI-H1793; first compound 8 µM): 0.419
relative viability (NCI-H1651; first compound 0.08 µM): 0.845
relative viability (NCI-H1651; first compound 0.8 µM): 0.905
relative viability (NCI-H1651; first compound 2.53 µM): 0.824
relative viability (NCI-H1651; first compound 8 µM): 0.83
relative viability (EMC-BAC-2; first compound 0.08 µM): 0.845
relative viability (EMC-BAC-2; first compound 0.8 µM): 1.08
relative viability (EMC-BAC-2; first compound 2.53 µM): 0.883
relative viability (EMC-BAC-2; first compound 8 µM): 0.913
relative viability (NCI-H596; first compound 0.08 µM): 0.832
relative viability (NCI-H596; first compound 0.8 µM): 0.796
relative viability (NCI-H596; first compound 2.53 µM): 0.795
relative viability (NCI-H596; first compound 8 µM): 0.748
relative viability (NCI-H441; first compound 0.08 µM): 0.399
relative viability (NCI-H441; first compound 0.8 µM): 0.584
relative viability (NCI-H441; first compound 2.53 µM): 0.552
relative viability (NCI-H441; first compound 8 µM): 0.465
relative viability (EPLC-272H; first compound 0.08 µM): 0.315
relative viability (EPLC-272H; first compound 0.8 µM): 0.282
relative viability (EPLC-272H; first compound 2.53 µM): 0.296
relative viability (EPLC-272H; first compound 8 µM): 0.253
relative viability (NCI-H460; first compound 0.08 µM): 0.173
relative viability (NCI-H460; first compound 0.8 µM): 0.202
relative viability (NCI-H460; first compound 2.53 µM): 0.151
relative viability (NCI-H460; first compound 8 µM): 0.112
relative viability (HCC-44; first compound 0.08 µM): 1.04
relative viability (HCC-44; first compound 0.8 µM): 1.08
relative viability (HCC-44; first compound 2.53 µM): 1.1
relative viability (HCC-44; first compound 8 µM): 1.08
relative viability (LK-2; first compound 0.08 µM): 0.793
relative viability (LK-2; first compound 0.8 µM): 1.02
relative viability (LK-2; first compound 2.53 µM): 0.945
relative viability (LK-2; first compound 8 µM): 0.954
relative viability (NCI-H1915; first compound 0.08 µM): 0.319
relative viability (NCI-H1915; first compound 0.8 µM): 0.33
relative viability (NCI-H1915; first compound 2.53 µM): 0.263
relative viability (NCI-H1915; first compound 8 µM): 0.295
relative viability (NCI-H2347; first compound 0.08 µM): 0.307
relative viability (NCI-H2347; first compound 0.8 µM): 0.272
relative viability (NCI-H2347; first compound 2.53 µM): 0.255
relative viability (NCI-H2347; first compound 8 µM): 0.316
relative viability (EKVX; first compound 0.08 µM): 0.328
relative viability (EKVX; first compound 0.8 µM): 0.472
relative viability (EKVX; first compound 2.53 µM): 0.275
relative viability (EKVX; first compound 8 µM): 0.429
relative viability (NCI-H358; first compound 0.08 µM): 0.137
relative viability (NCI-H358; first compound 0.8 µM): 0.154
relative viability (NCI-H358; first compound 2.53 µM): 0.127
relative viability (NCI-H358; first compound 8 µM): 0.14
relative viability (SW 900; first compound 0.08 µM): 0.779
relative viability (SW 900; first compound 0.8 µM): 0.962
relative viability (SW 900; first compound 2.53 µM): 0.781
relative viability (SW 900; first compound 8 µM): 1.15
relative viability (LXF-289; first compound 0.08 µM): 0.715
relative viability (LXF-289; first compound 0.8 µM): 0.737
relative viability (LXF-289; first compound 2.53 µM): 0.722
relative viability (LXF-289; first compound 8 µM): 0.676
